The text below walks through data of US20240050428A1 (Cullgen (Shanghai), Inc., priority 2020, published 2024).

In one assay the test system is MV4;11 cells. Briefly: Cell viability assay (CellTiter-Glo) in MV4;11 cells, alone or with gilteritinib. The note with it: Homo sapiens, MV4;11 cells, three days, CellTiter-Glo, read-out: MV4. Format: cell-based.
For another assay, the system named is MOLM-13 cells. Briefly: Cell viability assay (CellTiter-Glo) in MOLM-13 cells, alone or with gilteritinib. It counts as cell-based. The settings on record: Homo sapiens, MOLM-13 cells, three days, CellTiter-Glo.
Setting [1] is: MV4-11, 72 h, compound alone (without gilteritinib), 11 IC50.
Where [2] appears, read: MV4-11, 72 h, compound with gilteritinib 10 nM, 11 IC50 gilteritinib.
Setting [3] is: MOLM-13, 72 h, compound alone (without gilteritinib), read-out: MOLM-13 IC50.
Setting [4] is: MOLM-13, 72 h, compound with gilteritinib 20 nM, read-out: MOLM-13 IC50 gilteritinib.
Where [5] appears, read: 72 h, compound alone (without gilteritinib), 11 IC50.
[6] abbreviates: 72 h, compound with gilteritinib 10 nM, 11 IC50 gilteritinib.
Setting [7] is: 72 h, compound alone (without gilteritinib), read-out: MOLM-13 IC50.
The mark [8] stands for this setting: 72 h, compound with gilteritinib 20 nM, read-out: MOLM-13 IC50 gilteritinib.

The structures appear in SMILES notation. Read-outs that look alike come from different tables or passages of the source.

Take `O=C1CCC(N2C(=O)c3ccc(NCCCCCCn4cc(-c5cnc6ccc(N7CCNCC7)cc6n5)cn4)cc3C2=O)C(=O)N1` (centres unmarked) [GS-532, 2-(2,6-Dioxopiperidin-3-yl)-5-((6-(4-(7-(piperazin-1-yl)quinoxalin-2-yl)-1H-pyrazol-1-yl)hexyl)amino)isoindoline-1,3-dione]: the IC50 with MV4;11 cells (setting [1]) is 10 to 100 nM; in the assay on MV4;11 cells (setting [2]) it was < 10 nM; in the assay with MOLM-13 cells (setting [3]), 100 to 1000 nM; with MOLM-13 cells (setting [4]) it was < 10 nM.
With `O=C1CCC(N2Cc3cc(CNC(=O)C(F)(F)CCC(=O)N4CCC(n5cc(-c6cnc7ccccc7n6)cn5)CC4)ccc3C2=O)C(=O)N1` (centres unmarked) [GS-533, N-((2-(2,6-dioxopiperidin-3-yl)-1-oxoisoindolin-5-yl)methyl)-2,2-difluoro-5-oxo-5-(4-(4-(quinoxalin-2-yl)-1H-pyrazol-1-yl)piperidin-1-yl)pentanamide], the IC50 was 100 to 1000 nM in the assay with MV4;11 cells (setting [1]), 10 to 100 nM in the assay on MV4;11 cells (setting [2]), > 1000 nM in the assay on MOLM-13 cells (setting [3]) and > 1000 nM in the assay with MOLM-13 cells (setting [4]).
As to `Cc1nn(CCCCCCNc2ccc3c(c2)C(=O)N(C2CCC(=O)NC2=O)C3=O)cc1-c1cnc2ccccc2n1` (centres unmarked) [GS-534, 2-(2,6-Dioxopiperidin-3-yl)-5-((6-(3-methyl-4-(quinoxalin-2-yl)-1H-pyrazol-1-yl)hexyl)amino)isoindoline-1,3-dione], the IC50 is 10 to 100 nM with MV4;11 cells (setting [1]), < 10 nM in the assay on MV4;11 cells (setting [2]), 10 to 100 nM in the assay on MOLM-13 cells (setting [3]) and < 10 nM with MOLM-13 cells (setting [4]).
Regarding `Cc1c(-c2cnc3ccccc3n2)cnn1CCCCCCNc1ccc2c(c1)C(=O)N(C1CCC(=O)NC1=O)C2=O` (centres unmarked) [GS-535, 2-(2,6-dioxopiperidin-3-yl)-5-((6-(5-methyl-4-(quinoxalin-2-yl)-1H-pyrazol-1-yl)hexyl)amino)isoindoline-1,3-dione], the IC50 in the assay with MV4;11 cells (setting [1]) was 10 to 100 nM; in the assay with MV4;11 cells (setting [2]) it was 10 to 100 nM; in the assay with MOLM-13 cells (setting [3]), > 1000 nM; in the assay with MOLM-13 cells (setting [4]) it was < 10 nM.
With `O=C1CCC(N2C(=O)c3ccc(NCCCCCCn4ccc(-c5cnc6ccccc6n5)n4)cc3C2=O)C(=O)N1` (centres unmarked) [GS-536, 2-(2,6-Dioxopiperidin-3-yl)-5-((6-(3-(quinoxalin-2-yl)-1H-pyrazol-1-yl)hexyl)amino)isoindoline-1,3-dione], the IC50 in the assay with MV4;11 cells (setting [1]) was > 1000 nM; in the assay with MV4;11 cells (setting [2]) it was 100 to 1000 nM; with MOLM-13 cells (setting [3]), > 1000 nM; in the assay on MOLM-13 cells (setting [4]), 10 to 100 nM.
Consider `O=C1CCC(N2C(=O)c3ccc(NCCCCCCn4nccc4-c4cnc5ccccc5n4)cc3C2=O)C(=O)N1` (centres unmarked) [GS-537, 2-(2,6-dioxopiperidin-3-yl)-5-((6-(5-(quinoxalin-2-yl)-1H-pyrazol-1-yl)hexyl)amino)isoindoline-1,3-dione], for which the IC50 in the assay with MV4;11 cells (setting [1]) is 100 to 1000 nM; with MV4;11 cells (setting [2]), 100 to 1000 nM; with MOLM-13 cells (setting [3]), > 1000 nM; with MOLM-13 cells (setting [4]), 10 to 100 nM.
With `O=C1CCC(N2C(=O)c3ccc(NCC4CC(n5cc(-c6cnc7ccccc7n6)cn5)C4)cc3C2=O)C(=O)N1` (centres unmarked) [GS-538, 2-(2,6-Dioxopiperidin-3-yl)-5-(((3-(4-(quinoxalin-2-yl)-1H-pyrazol-1-yl)cyclobutyl)methyl)amino)isoindoline-1,3-dione], the IC50 with MV4;11 cells (setting [1]) fell in the range of 100 to 1000 nM; in the assay with MV4;11 cells (setting [2]), 10 to 100 nM; with MOLM-13 cells (setting [3]), 100 to 1000 nM; with MOLM-13 cells (setting [4]) it was 10 to 100 nM.
`O=C1CCC(N2C(=O)c3ccc(NCC4CC5(C4)CC(n4cc(-c6cnc7ccccc7n6)cn4)C5)cc3C2=O)C(=O)N1` (centres unmarked) [GS-539, 2-(2,6-Dioxopiperidin-3-yl)-5-(((6-(4-(quinoxalin-2-yl)-1H-pyrazol-1-yl)spiro[3.3]heptan-2-yl)methyl)amino)isoindoline-1,3-dione]: the IC50 is > 1000 nM in the assay on MV4;11 cells (setting [1]), 100 to 1000 nM in the assay with MV4;11 cells (setting [2]), > 1000 nM in the assay with MOLM-13 cells (setting [3]) and 100 to 1000 nM with MOLM-13 cells (setting [4]).
On to `Cc1nn(CCCCCCNc2ccc3c(c2)C(=O)N(C2CCC(=O)NC2=O)C3=O)c(C)c1-c1nc2ccccc2nc1C(F)(F)F` (centres unmarked) [GS-540, 5-((6-(3,5-Dimethyl-4-(3-(trifluoromethyl)quinoxalin-2-yl)-1H-pyrazol-1-yl)hexyl)amino)-2-(2,6-dioxopiperidin-3-yl)isoindoline-1,3-dione], for which the IC50 was > 1000 nM in the assay with MV4;11 cells (setting [1]), 10 to 100 nM in the assay on MV4;11 cells (setting [2]), > 1000 nM with MOLM-13 cells (setting [3]) and 10 to 100 nM with MOLM-13 cells (setting [4]).
Regarding `O=C1CCC(N2C(=O)c3ccc(NCCCCCCn4cc(-c5cnc6ccc(C7CCNCC7)cc6n5)cn4)cc3C2=O)C(=O)N1` (centres unmarked) [GS-541, 2-(2,6-Dioxopiperidin-3-yl)-5-((6-(4-(7-(piperidin-4-yl)quinoxalin-2-yl)-1H-pyrazol-1-yl)hexyl)amino)isoindoline-1,3-dione], the IC50 was 100 to 1000 nM in the assay with MV4;11 cells (setting [1]), < 10 nM with MV4;11 cells (setting [2]), 10 to 100 nM with MOLM-13 cells (setting [3]) and < 10 nM in the assay with MOLM-13 cells (setting [4]).
In the case of `O=C1CCC(N2C(=O)c3ccc(NCCCCCCn4cc(-c5cnc6ccc(C7CCOCC7)cc6n5)cn4)cc3C2=O)C(=O)N1` (centres unmarked) [GS-542, 2-(2,6-Dioxopiperidin-3-yl)-5-((6-(4-(7-(tetrahydro-2H-pyran-4-yl)quinoxalin-2-yl)-1H-pyrazol-1-yl)hexyl)amino)isoindoline-1,3-dione], the IC50 in the assay on MV4;11 cells (setting [1]) was 10 to 100 nM; in the assay on MV4;11 cells (setting [2]), < 10 nM; in the assay with MOLM-13 cells (setting [3]), 10 to 100 nM; in the assay on MOLM-13 cells (setting [4]), < 10 nM.
As to `O=C1CCC(N2C(=O)c3ccc(NCCCCC(=O)N4CCC(n5cc(-c6cnc7ccc(N8CCNCC8)cc7n6)cn5)CC4)cc3C2=O)C(=O)N1` (centres unmarked) [GS-543, 2-(2,6-Dioxopiperidin-3-yl)-5-((5-oxo-5-(4-(4-(7-(piperazin-1-yl)quinoxalin-2-yl)-1H-pyrazol-1-yl)piperidin-1-yl)pentyl)amino)isoindoline-1,3-dione], the IC50 in the assay with MV4;11 cells (setting [1]) is 10 to 100 nM; in the assay with MV4;11 cells (setting [2]), < 10 nM; in the assay on MOLM-13 cells (setting [3]) it was 10 to 100 nM; in the assay on MOLM-13 cells (setting [4]), < 10 nM.
On to `O=C1CCC(N2C(=O)c3ccc(NCCCCC(=O)N4CCC(n5cc(-c6cnc7ccc(C8=CCNCC8)cc7n6)cn5)CC4)cc3C2=O)C(=O)N1` (centres unmarked) [GS-544, 2-(2,6-Dioxopiperidin-3-yl)-5-((5-oxo-5-(4-(4-(7-(1,2,3,6-tetrahydropyridin-4-yl)quinoxalin-2-yl)-1H-pyrazol-1-yl)piperidin-1-yl)pentyl)amino)isoindoline-1,3-dione], for which the IC50 was 100 to 1000 nM in the assay with MV4;11 cells (setting [1]), < 10 nM in the assay with MV4;11 cells (setting [2]), 100 to 1000 nM in the assay on MOLM-13 cells (setting [3]) and < 10 nM in the assay on MOLM-13 cells (setting [4]).
On to `O=C1CCC(N2C(=O)c3ccc(NCCCCC(=O)N4CCC(c5cnc6ccccc6n5)CC4)cc3C2=O)C(=O)N1` (centres unmarked) [GS-545, 2-(2,6-Dioxopiperidin-3-yl)-5-((5-oxo-5-(4-(quinoxalin-2-yl)piperidin-1-yl)pentyl)amino)isoindoline-1,3-dione], for which the IC50 in the assay on MV4;11 cells (setting [1]) is > 1000 nM; in the assay on MV4;11 cells (setting [2]), 100 to 1000 nM; in the assay with MOLM-13 cells (setting [3]) it was 100 to 1000 nM; in the assay with MOLM-13 cells (setting [4]), 10 to 100 nM.
Take `Cc1cn(CCCCCCNc2ccc3c(c2)C(=O)N(C2CCC(=O)NC2=O)C3=O)nc1-c1cnc2ccccc2n1` (centres unmarked) [GS-546, 2-(2,6-Dioxopiperidin-3-yl)-5-((6-(4-methyl-3-(quinoxalin-2-yl)-TH-pyrazol-1-yl)hexyl)amino)isoindoline-1,3-dione]: the IC50 is > 1000 nM with MV4;11 cells (setting [1]), 100 to 1000 nM in the assay with MV4;11 cells (setting [2]), > 1000 nM in the assay with MOLM-13 cells (setting [3]) and 10 to 100 nM with MOLM-13 cells (setting [4]).
Consider `O=C1CCC(N2C(=O)c3ccc(NCCCCCCn4cc(-c5nc6ccccc6nc5C(F)F)cn4)cc3C2=O)C(=O)N1` (centres unmarked) [GS-547, 5-((6-(4-(3-(Difluoromethyl)quinoxalin-2-yl)-1H-pyrazol-1-yl)hexyl)amino)-2-(2,6-dioxopiperidin-3-yl)isoindoline-1,3-dione], for which the IC50 with MV4;11 cells (setting [5]) was 100 to 1000 nM; in the assay on MV4;11 cells (setting [6]) it was 10 to 100 nM; in the assay on MOLM-13 cells (setting [7]), > 1000 nM; with MOLM-13 cells (setting [8]), 10 to 100 nM.
Consider `CN1CCC(c2ccc3ncc(-c4cnn(CCCCCCNc5ccc6c(c5)C(=O)N(C5CCC(=O)NC5=O)C6=O)c4)nc3c2)CC1` (centres unmarked) [GS-548, 2-(2,6-Dioxopiperidin-3-yl)-5-((6-(4-(7-(1-methylpiperidin-4-yl)quinoxalin-2-yl)-1H-pyrazol-1-yl)hexyl)amino)isoindoline-1,3-dione], for which the IC50 with MV4;11 cells (setting [1]) was 100 to 1000 nM; with MV4;11 cells (setting [2]), < 10 nM; with MOLM-13 cells (setting [3]) it was 100 to 1000 nM; with MOLM-13 cells (setting [4]), < 10 nM.
For the compound `Cc1nn(CCCCCCNc2ccc3c(c2)C(=O)N(C2CCC(=O)NC2=O)C3=O)c(C)c1-c1ccc2ccccc2n1` (centres unmarked) [GS-549, 5-((6-(3,5-Dimethyl-4-(quinolin-2-yl)-1H-pyrazol-1-yl)hexyl)amino)-2-(2,6-dioxopiperidin-3-yl)isoindoline-1,3-dione], the IC50 with MV4;11 cells (setting [1]) is 100 to 1000 nM; in the assay on MV4;11 cells (setting [2]), 10 to 100 nM; in the assay with MOLM-13 cells (setting [3]) it was 100 to 1000 nM; in the assay with MOLM-13 cells (setting [4]), < 10 nM.
On to `O=C1CCC(N2C(=O)c3ccc(NCCCCCCn4cc(-c5cnc6ccccc6n5)c(C(F)(F)F)n4)cc3C2=O)C(=O)N1` (centres unmarked) [GS-550, 2-(2,6-Dioxopiperidin-3-yl)-5-((6-(4-(quinoxalin-2-yl)-3-(trifluoromethyl)-1H-pyrazol-1-yl)hexyl)amino)isoindoline-1,3-dione], for which the IC50 in the assay with MV4;11 cells (setting [1]) was in the range of 100 to 1000 nM; in the assay on MV4;11 cells (setting [2]), 10 to 100 nM; in the assay with MOLM-13 cells (setting [3]) it was 100 to 1000 nM; in the assay with MOLM-13 cells (setting [4]) it was 10 to 100 nM.
As for `O=C1CCC(N2C(=O)c3ccc(NCCCCC(F)(F)Cn4cc(-c5cnc6ccccc6n5)cn4)cc3C2=O)C(=O)N1` (centres unmarked) [GS-551, 5-((5,5-Difluoro-6-(4-(quinoxalin-2-yl)-1H-pyrazol-1-yl)hexyl)amino)-2-(2,6-dioxopiperidin-3-yl)isoindoline-1,3-dione], the IC50 was > 1000 nM in the assay with MV4;11 cells (setting [5]), 100 to 1000 nM with MV4;11 cells (setting [6]), > 1000 nM in the assay on MOLM-13 cells (setting [7]) and 10 to 100 nM in the assay with MOLM-13 cells (setting [8]).
